Assay results from patent US20090156674A1, “Valnemulin Salts with Organic Acids” (priority 2005, published 2009).
Counter-ions that a name gives are not always drawn.

Legend:
[1] = Stability of valnemulin acid addition salts in the pelleting procedure for animal feed; format: physicochemical; conditions: pelleting at 75° C.; wheat-based animal feed; 100 ppm valnemulin in the feed
Protocol: In order to test the stability of the valnemulin acid addition salts in animal feed, the calculated amount of the acid addition salt (corresponding to a target dose of 100 ppm) is added to ca. 4 kg of wheat-based animal feed and mixed in a high-speed laboratory mixer for 60 seconds to form a first premix (PM1). The ca. 4 kg of premix PM1 is then transferred to a horizontal mixer and mixed with 21 kg of the same feed for a further 6 minutes to form a further premix (PM2). The ca. 25 kg of premix PM2 is transferred to a vertical mixer and intimately mixed with a further 175 kg of the same animal feed for 8 minutes, whereupon a homogeneous, treated mixture is obtained, which contains valnemulin concentrations corresponding to the target dose of 100 ppm. Prior to further processing, samples of ca. 100 g each are taken from the upper, centre and lower part of the medicinal feed mixture, in order to test its homogeneity. In addition, further samples are taken randomly for use in stability tests. The finished, treated medicinal feed is now ready for pelleting. […] The 200 kg of finished medicinal feed is then fed continuously into the pelleting press of the feed mill over the course of ca. 20 mins. Afterwards, the pellets are dried in batches in a continuous stream of air, and cooled. To examine the homogeneity of the pelleted medicinal feed, several samples of ca. 100 g each are taken at the start, middle and end of the pelleting process. In addition, samples are taken in a random order from each batch, in order to test the stability in storage. […] In the following table 1, by way of example, the stabilities of different acid addition salts of valnemulin in the pelleting procedure for the animal feed are compared.

[2] = Stability of valnemulin during production and storage of feed pellets (background statements); format: physicochemical
Text: It has been shown that valnemulin is rather unstable when producing pelleted feed, particularly when in contact with the feed material, especially constituents of vegetable or animal origin. This leads to substantial losses already at the preparation stage. In the preparation of pelleted feed, the dried organic starting material of animal or vegetable origin is ground, mixed intimately with the admixtures, vitamins, trace elements and other additives, i.e. substantially homogenized, and then optionally moistened with ca. 5 to 10% by weight water and compressed into feed pellets at elevated temperatures ranging from ca. 60 to 100° C. at pressures of ca. 1 to 100 kbar. Short-term, local temperature peaks in the press, so-called flashes, even reach 200° C. for a short time. The retention time of the mass in the press is generally from ca. 5 to 180 seconds and depends inter alia on the size of the pellets.
Whereas valnemulin in the form of the dried, amorphous hydrochloride salt withstands these temperatures for a short time without significant decomposition and can be stored at room temperature even for a few months without any measurable loss of active ingredient, this active ingredient decomposes relatively rapidly under pressure and in intimate contact with animal or vegetable feed constituents and at the prevailing elevated temperatures. […]

Compound | Loss of active substance in the pelleting procedure, average loss [1] [%] | content of active ingredient in finished pellets on storage ([2]; finished pellets, room temperature, after three months) | active ingredient lost in compression into feed pellets ([2]; raised pressure and elevated temperature kept as short as possible, pellets immediately cooled to room temperature, contact with feed constituents)
C=CC1(C)CC(OC(=O)CSC(C)(C)CNC(=O)C(N)C(C)C)C2(C)C(C)CCC3(CCC(=O)C32)C(C)C1O.O=C(O)C(O)C(O)C(=O)O [valnemulin D-hydrogen tartrate, Valnemulin D-Hydrogen Tartrate] | 0.3 | – | –
C=C[C@]1(C)C[C@@H](OC(=O)CSC(C)(C)CNC(=O)[C@H](N)C(C)C)[C@]2(C)[C@H](C)CC[C@]3(CCC(=O)[C@H]32)[C@@H](C)[C@@H]1O [valnemulin hydrochloride] | 11.6 | – | –
C=C[C@]1(C)C[C@@H](OC(=O)CSC(C)(C)CNC(=O)[C@H](N)C(C)C)[C@]2(C)[C@H](C)CC[C@]3(CCC(=O)[C@H]32)[C@@H](C)[C@@H]1O.O=C(O)/C=C/C(=O)O [valnemulin hydrogen fumarate, Valnemulin Hydrogen Fumarate] | 0.2 | – | –
C=C[C@]1(C)C[C@@H](OC(=O)CSC(C)(C)CNC(=O)C(N)C(C)C)[C@]2(C)C(C)CC[C@]3(CCC(=O)C32)[C@@H](C)[C@@H]1O (some centres unmarked) [valnemulin, Valnemulin] | – | below 60% | one quarter to one third
